In EP0399716A1, “Hypoallergenic steroidal anesthetic/hypnotic compositions” (INNOVET, INC., priority 1989, dated 1990):

Test system: horses
Assay: Alfaxalone/HPCD anesthesia in the horse
Procedure: In the first stage, two horses were anesthetized after heavy premedication with xylazine (0.6 mg/kg). […] Heart rate, respiratory rate, blood pressure, ECG and ventilation were monitored throughout the anesthesia period.
The same parameters as in the first stage were monitored.
Cardiopulmonary parameters were monitored as before.
To provide some comparison in the above stages, the two horses were anesthetized with thiamylal sodium (8 mg/kg) after the same premedication as before and a similar monitoring regime followed.
A third horse was obtained and the same regimen was followed as in the third stage, but three "top-ups" of one-third induction dose were administered at 10 minute intervals. Similar monitoring as above was continued.
Blood pressure was measured from an acutely placed antraarterial catheter and read through a transducer/digital readout system which included an ECG tracing oscilloscope.

Question: For `CC(=O)[C@H]1CC[C@H]2[C@@H]3CC[C@H]4C[C@H](O)CC[C@]4(C)[C@H]3C(=O)C[C@]12C` (stereo in doubt) [alfaxalone, 3α-hydroxy-5α-pregnane-11,20-dione], which “recoveries classified as excellent” value (alfaxalone alone recoveries) is on record?
Answer: Four of the five

Question: Which sedation (0.6 mg/kg i.v.) does the source give for `Cc1cccc(C)c1N=C1NCCCS1` [xylazine] here?
Answer: good sedation without ataxia

Question: Which blood pressure effect (after xylazine premedication) does the source give for `C=CCC1(C(C)CCC)C(=O)N=C(S)NC1=O` (stereo not drawn) [thiamylal, thiamylal sodium] here?
Answer: the same effect
